From patent US20240165196A1, “Beta-Lactamase Inhibitors” (VIB VZW, priority 2021, published 2024)
Ends that are not written are not given here.

Key:
E. coli UZ_TEM104 = assay: FACS analysis with Propidium Iodide and pFTAA; format: cell-based; conditions: 400 μg/mL penicillin G only, 4 h
Procedure: (§1) FIGS. 3A-3P. […] Three replicates are shown for each condition. […] A single representative image is shown. […] Three replicates are shown for each condition. (FIG. 3E) [Left] […] [Middle] […] [Right] […] A single representative image is shown. […] A single representative image is shown. […] A single representative image is shown. […] A single representative blot is shown. […] 106 cells were analysed for the plot.
First, we tested the assay using a mixture of live and heat inactivated (FIG. 3L) or just live bacteria (FIG. 3M), showing that heat inactivated, but not live bacteria are stained with PI, and neither are stained with pFTAA.
Bacterial cells in the cleaned suspensions were stained with both propidium iodide (PI) and FITC peptide to evaluate the killing rate and peptide uptake in a two-dimensional analysis. […] Treated bacteria washed with PBS buffer two times. One microliter of PI (Invitrogen) was added to the bacteria and incubated for 5 min. The bacteria were used by FACS tubes for 40000 events. To correlate the activity of the peptides with cell death, the fluorescence intensity was measured in two channels using the Gallios™ Flow Cytometer (Beckman Coulter, USA), PI: excitation 536 nm and emission 617 nm, FITC: excitation 490 nm and emission 525 nm. Heated bacteria at 90° C. for 10 min were used as PI-positive control.

E. coli strain UZ_TEM104 = format: cell-based; conditions: penicillin alone, buffer, additive 0 μg/mL
strain containing NDM5a = assay: checkerboard assay (FICI), peptide and penicillin; format: cell-based, E. coli
Description: (§2) FIGS. 4A-4K. […] IV—Intravenous, IP—Intraperitoneal, SC—Subcutaneously. The data shown is from a single experiment with 4 animals per group. […] (ns—non significant, #—P>0.05, *—P≤0.05, ***—P≤0.01, ****—P≤0.001). (FIG. 4G) FICI plot as in FIG. 2, for the E. coli strains indicated and the combination of penicillin and the TEM3.2 peptide. […] (FIG. 4J) Same as FIG. 4H for peptide BGAL. (FIG. 4K) Same as FIG. 4H for peptide P33.
(§3) As we wondered about the generality of our peptide design approach, we set out to design a peptide to inactivate a structurally unrelated beta-lactamase. To this end we turned to the Ambler class B beta-lactamase NDM-1 that confers resistance to many beta-lactam antibiotics, including carbapenems, and strains carrying this enzyme was soon dubbed ‘superbugs’ that are only partially sensitive to colistin and tigecycline^49. This enzyme was first isolated from a patient in 200850, by 2010 could be detected in clinical isolates throughout the UK and India^51 and by 2015 was detected in over 70 countries worldwide^52.
(§4) For the analysis of the synergy between the peptides with other antibiotics, a checkerboard assay was performed. Referring to the MICs of the selected peptides, checkerboard assay was designed to define their FICIs (Fractional Inhibitory Concentration Index) in combinations against different clinical isolates^62,63. Briefly, a total volume of 100 μL of Mueller-Hinton broth was distributed into each well of the 96-well plates. The first compound (peptide) of the combination was serially diluted vertically (128, 64, 32, 16, 8, 4, 2, 0 μg/mL) while the other drug (Beta-lactam or Kanamycin) was diluted horizontally in 96 well plate (from 3200 to 3 μg/mL). The total volume of each microtiter well was inoculated with 100 μL of MHB containing 1×10^6 CFU/mL bacteria. The plates were incubated at 37° C. for 24 h under aerobic conditions without shaking. Calculation of the FICI is used to analyze the results of the checkerboard assay by estimating the degree of synergistic effect. FICI is calculated as the sum of the individual fractional inhibitory concentrations (FICs) for each drug (where MIC A and MIC B denote the MIC of each drug alone, and MIC AA+B and MIC BA+B denote the concentrations of A and B in the drug combination). FICI=(MIC AA+B/MIC A)+(MIC BA+B/MIC B). With FICI≤0.5, the combination of antibiotics considered as a synergistic effect, 0.5<FICI≤1 indicates additivity, FICI>1 indicates indifference.

strain containing NDM5b = assay: checkerboard assay (FICI), peptide and penicillin; format: cell-based, E. coli
Description: as §2, §3, §4

strain containing TEM-1 = assay: checkerboard assay (FICI), peptide and penicillin; format: cell-based, E. coli; conditions: strain TEM-1
Description: as §2, §3, §4

E. coli SHV-11 = assay: checkerboard assay (FICI), peptide versus penicillin G; format: cell-based; conditions: strain with SHV-11; FICI below 0.5 = synergy
Description: (§5) FIGS. 2A-2M. (FIG. 2A) TEM mutations and their effects on stability (total energy) as predicted by FoldX. […] Dashed line indicates a total energy difference of 0.5 kcal/mol, the FoldX cut-off above which mutations are considered to be destabilizing. (FIG. 2B) Barplot mapping mutations in (FIG. 2A) to the TEM sequence and indicating occurrence. […] The bar heights correspond to the number of times a mutation occurs across different TEM variants (right-hand y-axis). The color coding is identical to that in (FIG. 2A). Red line indicates the TANGO scores (indicated on the left-hand y-axis), with peaks corresponding to APRs. (FIG. 2C) Mapping of mutations in (FIG. 2A) and (FIG. 2B) to the TEM structure (pdb 1xpb). Protein surface is shown in gray, color coding of mutations is identical to (FIG. 2A) and (FIG. 2B). (FIGS. 2D, 2E, and 2F) Temperature-dependent evolution of the Right-Angle Light Scattering (RALS) intensity during a temperature ramp, similar as in FIG. 1F for key mutants of TEM1, namely TEM-10 (FIG. 2D), TEM-30 (FIG. 2E) and TEM-155 (FIG. 2F). Experiments were shown in triplicate, single repeat is shown. (FIG. 2G) Schematic representation of the structure of the peptides. APR—Aggregation Prone Region, R—Arginine. (FIG. 2H) Ribbon representation of the superposition of the crystal structures of TEM (green, pdb id 1bt5) and SHV (blue, pdb id 1shv). The catalytic site of the beta-lactamase activity is indicated and location of APR3 is shown in red. (FIG. 2I) TANGO aggregation score and alignment of APR3 in TEM and SHV. (FIG. 2J) Fractional Inhibitory Concentration Index determination of 5 peptides versus penicillin on E. coli TEM-104. […] FICI values below 0.5 indicate synergy. Values between 0.5 and 1.0 indicate additivity and values greater than 1 indicate indifference between the combined substances. (FIG. 2K) Same as J for E. coli SHV-11. (FIG. 2L) Same as J for a kanamycin resistant E. coli strain. (FIG. 2M) FICI values for the TEM3.2 peptide on a range of E. coli strains.
(§6) Moreover, the core sequence of peptide TEM3.0 also occurs in the structurally related SHV β-lactamase ([…]). Although the C-terminal extension residues H and N have been replaced with physicochemically similar R and Q, respectively (FIG. 2H). […] To quantify the synergy between these four peptides and penicillin G, we performed a so-called checkerboard assay, which allows to compare the activity of two test compounds co-incubated (here peptide and a beta-lactam antibiotic), to their individual activities in isolation. The result from the assay is quantified as the Fractional Inhibitory Concentration Index (FICI), and it is generally accepted that values below 0.5 indicate synergistic effects between the compounds. As a control, we generated a peptide using the same design, but based on a previously identified APR from the β-galactosidase enzyme (BGAL)^16 from E. coli (APR=SVIIWSL, peptide sequence=[…]) that has a MIC value>100 μg/mL on E. coli strain UZ_TEM104. We evaluated the synergy of the peptides with penicillin G in clinical E. coli isolates carrying the TEM ([…]) or SHV enzymes ([…]). […] As a further control, we also performed a checkerboard assay with an E. coli strain that was resistant to the aminoglycoside kanamycin and observed no synergy between this unrelated antibiotic and our peptides (FIG. 2L), in line with the notion that we are inhibiting a beta-lactamase but not the aminoglycoside degrading enzyme. […] The list of strains included some that harbored only TEM or SHV, but others contained additional Ambler Class A (CTX-M or […]) or Class B (VIM and NDM) beta-lactamases. […] In contrast, the presence of the NDM-type […], that does have a high affinity for Ampicillin and that is completely distinct in sequence and structure from TEM and SHV, seemed to completely prevent the effect of the peptide on the beta-lactam sensitivity of the strains in which it occurred (see also further). […]

E. coli TEM-104 = assay: as above; format: cell-based; conditions: strain with TEM; FICI below 0.5 = synergy
Description: as §5, §6

[1] = tested on: TEM beta-lactamase in E. coli UZ_TEM104; assay: western blot of inclusion body (IB) fraction for TEM; format: cell-based; conditions: 12 μM peptide in PBS, 120 min
Procedure: as §1
(§7) Moreover, we confirmed the presence of the protein in the correct band using mass spectrometry proteomics. We repeated this with a strain expressing SHV-154, blotting with a polyclonal rabbit antibody raised against the recombinant SHV enzyme described above (FIG. 3K).
(§8) The overnight culture of bacteria was centrifuged for 30 min at 4,000×g and cells were washed with physiological water (NaCl 0.9%). Bacterial cells were treated by peptide at the appropriate concentration for at least 2 h at 37 C. The bacterial pellets were washed with 10 mL buffer A (50 mM HEPES, pH 7.5, 300 mM NaCl, 5 mM β-mercaptoethanol, 1.0 mM EDTA) and centrifuged at 4° C. for 30 min at 4,000×g. The supernatant was discarded and 20 mL of buffer B (buffer A plus 1 tablet of the protease and phosphatase Inhibitor Cocktail (ab201119, Abcam, UK) was added to the bacterial pellet. In order to break the cells, a High-Pressure Homogenizer (Glen Creston Ltd) with the pressure set to 20,000-25,000 psi was used on ice, and in addition, the suspensions were sonicated (Branson Digital sonifier 50/60 Hz) on ice with alternating 2 min cycle (15 pulses at 50% power with 30 s pauses on ice, until completing 2 min total sonication time). The lysed cells were centrifuged at 4° C. for 30 min at 11,000×g. The precipitated fraction was afterward re-suspended with 10 mL buffer D (buffer A plus 0.8% (V/V) Triton X-100, 0.1% sodium deoxycholate) and the suspension was sonicated to ensure the pellet is completely dissolved. This step was repeated three times. Centrifugation was performed at 4° C. for 30 min at 11,000×g. Finally, to solubilize IBs, the pellet was suspended in 500 ul of buffer F (50 mM HEPES, pH 7.5, 8.0 M urea) of precipitated fraction.

[2] = tested on: SHV beta-lactamase in strain expressing SHV-154; assay: western blot of inclusion body (IB) fraction for SHV; format: cell-based, E. coli; conditions: 12 μM peptide in PBS, 120 min
Procedure: as §1, §7, §8

CC1(C)S[C@@H]2[C@H](NC(=O)Cc3ccccc3)C(=O)N2[C@H]1C(=O)O [penicillin G, Benzylpenicillin sodium]
change in PI (cell death) and pFTAA (aggregation) channels (E. coli UZ_TEM104): no major change in either channel | MIC penicillin (E. coli strain UZ_TEM104): 1600 µg/mL

RLAAALMLRRPRAQILNWIRR (NDM1-2)
synergy with penicillin (FICI) (strain containing NDM5a): synergy | synergy with penicillin (FICI) (strain containing NDM5b): synergy | synergy with penicillin (FICI) (strain containing TEM-1): not in a strain containing TEM-1

RLTAFLRQRRPRLTAFLHNRR (non-natural molecule) [TEM3.3]
synergy with penicillin G (FICI) (E. coli SHV-11): synergy | synergy with penicillin G (FICI) (E. coli TEM-104): synergy | enrichment of the TEM protein in inclusion bodies (western blot) [1]: clear enrichment of the TEM protein in IBs | accumulation of the SHV enzyme in inclusion bodies (western blot) [2]: accumulates in IBs

RLTAFLRQRRPRLTAFLRQRR (non-natural molecule) [TEM3.1]
synergy with penicillin G (FICI) (E. coli SHV-11): clear synergy | enrichment of the TEM protein in inclusion bodies (western blot) [1]: not | accumulation of the SHV enzyme in inclusion bodies (western blot) [2]: accumulates in IBs

RSVIIWSLGRRPRSVIIWSLGRR [BGAL]
synergy with penicillin G (FICI) (E. coli SHV-11): no synergy | synergy with penicillin G (FICI) (E. coli TEM-104): no synergy | synergy with penicillin (FICI) (strain containing NDM5a): neither showed synergy | synergy with penicillin (FICI) (strain containing NDM5b): neither showed synergy | synergy with penicillin (FICI) (strain containing TEM-1): neither showed synergy

RTAQILNWRRPRTAQILNWRR (NDM1-1)
synergy with penicillin (FICI) (strain containing NDM5a): synergy | synergy with penicillin (FICI) (strain containing NDM5b): synergy | synergy with penicillin (FICI) (strain containing TEM-1): not in a strain containing TEM-1
